# Laboratory results taken from PMC7814854 (Biochemistry, 2019).
# Biological target: CMP-sialic acid synthetase (NmCSS) (Neisseria meningitidis, UniProt P0A0Z8)
# Assay: X-ray crystal structure
# Assay type: biochemical
# Sequence of CMP-sialic acid synthetase (NmCSS) (P0A0Z8 whole entry): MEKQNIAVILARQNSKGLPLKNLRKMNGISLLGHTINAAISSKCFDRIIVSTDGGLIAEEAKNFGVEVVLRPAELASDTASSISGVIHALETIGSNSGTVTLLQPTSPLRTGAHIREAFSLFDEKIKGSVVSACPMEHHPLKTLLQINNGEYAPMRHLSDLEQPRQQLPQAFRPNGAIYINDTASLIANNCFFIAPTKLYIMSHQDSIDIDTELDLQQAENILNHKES
compound,measurement,value
"CC(=O)N[C@H]1[C@H]([C@H](O)[C@H](O)CO)OC(C(=O)O)=C[C@@H]1O [Neu5Ac2en, 2-deoxy-2,3-dehydro-N-acetylneuraminic acid]",IC50,130 ± 10 µM
